Measured values from ChEMBL document CHEMBL5136990, “Histone deacetylase 6 inhibitors with blood-brain barrier penetration as a potential strategy for CNS-Disorders therapy” (Eur J Med Chem, 2022).

Legend:
[1] = Inhibition of full-length recombinant human HDAC3/NcoR2 using RHKKAc peptide as substrate by fluorescence based assay
[2] = molecular target: T1, Polyamine deacetylase HDAC10 (Homo sapiens, UniProt Q969S8); test: Inhibition of recombinant human HDAC10 using fluorogenic substrate
T1 sequence (Q969S8 whole entry): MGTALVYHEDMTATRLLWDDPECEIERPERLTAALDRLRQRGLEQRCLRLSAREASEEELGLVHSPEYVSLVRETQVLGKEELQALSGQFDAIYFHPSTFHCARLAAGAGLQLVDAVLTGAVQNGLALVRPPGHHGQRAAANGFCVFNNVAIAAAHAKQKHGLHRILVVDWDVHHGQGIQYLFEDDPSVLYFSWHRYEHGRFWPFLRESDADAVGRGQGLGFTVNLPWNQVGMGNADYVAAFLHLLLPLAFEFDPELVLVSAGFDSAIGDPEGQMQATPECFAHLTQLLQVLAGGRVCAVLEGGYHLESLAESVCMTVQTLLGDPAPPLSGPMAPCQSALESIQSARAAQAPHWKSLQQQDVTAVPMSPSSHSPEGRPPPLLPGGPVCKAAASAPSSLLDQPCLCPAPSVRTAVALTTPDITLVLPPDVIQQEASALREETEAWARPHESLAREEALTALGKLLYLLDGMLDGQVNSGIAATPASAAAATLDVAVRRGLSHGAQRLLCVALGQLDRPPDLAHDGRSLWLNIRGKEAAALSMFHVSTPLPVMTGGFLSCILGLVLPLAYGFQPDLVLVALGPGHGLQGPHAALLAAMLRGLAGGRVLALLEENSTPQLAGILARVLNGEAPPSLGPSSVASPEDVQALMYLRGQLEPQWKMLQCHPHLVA

[3] = molecular target: T2, Histone deacetylase 1 (Homo sapiens, UniProt Q13547); test: Inhibition of recombinant human HDAC1 using fluorogenic substrate
T2 sequence (Q13547 whole entry): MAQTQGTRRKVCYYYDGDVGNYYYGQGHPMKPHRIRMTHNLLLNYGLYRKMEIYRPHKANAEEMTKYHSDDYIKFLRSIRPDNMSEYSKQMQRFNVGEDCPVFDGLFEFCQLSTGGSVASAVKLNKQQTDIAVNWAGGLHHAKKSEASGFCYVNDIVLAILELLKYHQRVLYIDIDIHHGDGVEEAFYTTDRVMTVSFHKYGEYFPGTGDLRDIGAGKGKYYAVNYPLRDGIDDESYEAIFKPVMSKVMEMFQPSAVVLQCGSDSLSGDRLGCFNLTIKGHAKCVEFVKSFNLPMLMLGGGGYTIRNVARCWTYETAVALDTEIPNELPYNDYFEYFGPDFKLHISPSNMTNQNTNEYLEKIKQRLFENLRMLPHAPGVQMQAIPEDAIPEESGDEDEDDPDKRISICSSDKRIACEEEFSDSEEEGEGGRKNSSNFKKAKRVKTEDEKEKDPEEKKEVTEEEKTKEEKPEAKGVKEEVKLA

[4] = molecular target: T3, Histone deacetylase 2 (Homo sapiens, UniProt Q92769); test: Inhibition of recombinant human HDAC2 using fluorogenic substrate
T3 sequence (Q92769 whole entry): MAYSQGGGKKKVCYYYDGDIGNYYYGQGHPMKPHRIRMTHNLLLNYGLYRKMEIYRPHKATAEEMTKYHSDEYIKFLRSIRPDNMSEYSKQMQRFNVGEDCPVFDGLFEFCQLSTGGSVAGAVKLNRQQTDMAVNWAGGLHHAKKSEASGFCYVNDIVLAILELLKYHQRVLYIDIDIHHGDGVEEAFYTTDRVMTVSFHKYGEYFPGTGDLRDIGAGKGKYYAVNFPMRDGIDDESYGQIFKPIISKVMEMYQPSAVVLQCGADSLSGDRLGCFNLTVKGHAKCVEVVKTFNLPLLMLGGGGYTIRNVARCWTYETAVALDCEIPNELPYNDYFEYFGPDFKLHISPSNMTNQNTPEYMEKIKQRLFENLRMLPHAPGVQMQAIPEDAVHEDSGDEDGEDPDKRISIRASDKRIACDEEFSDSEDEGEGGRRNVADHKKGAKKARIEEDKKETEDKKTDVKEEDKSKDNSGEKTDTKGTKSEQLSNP

[5] = molecular target: Histone deacetylase 3 (Homo sapiens, UniProt O15379); test: Inhibition of recombinant human HDAC3 using fluorogenic substrate
Chain of Histone deacetylase 3 (O15379 whole entry): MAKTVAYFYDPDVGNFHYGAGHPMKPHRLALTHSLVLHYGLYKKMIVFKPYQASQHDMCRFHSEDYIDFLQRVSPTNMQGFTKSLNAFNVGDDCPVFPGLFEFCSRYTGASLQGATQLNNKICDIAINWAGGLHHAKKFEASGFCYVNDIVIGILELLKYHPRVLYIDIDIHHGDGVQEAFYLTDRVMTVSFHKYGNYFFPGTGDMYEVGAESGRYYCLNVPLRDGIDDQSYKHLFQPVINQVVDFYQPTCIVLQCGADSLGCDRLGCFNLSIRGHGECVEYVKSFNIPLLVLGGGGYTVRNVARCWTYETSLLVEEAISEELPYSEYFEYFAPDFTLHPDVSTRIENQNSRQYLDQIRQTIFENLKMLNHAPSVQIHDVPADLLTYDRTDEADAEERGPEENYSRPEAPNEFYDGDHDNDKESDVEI

[6] = molecular target: T2, Histone deacetylase 1; test: Inhibition of HDAC1 (unknown origin)
[7] = molecular target: T3, Histone deacetylase 2; test: Inhibition of HDAC2 (unknown origin)
[8] = molecular target: cGMP-specific 3',5'-cyclic phosphodiesterase (Homo sapiens, UniProt O76074); test: Inhibition of PDE5 (unknown origin)
[9] = molecular target: High affinity cGMP-specific 3',5'-cyclic phosphodiesterase 9A (Homo sapiens, UniProt O76083); test: Inhibition of PDE9 (unknown origin)
Chain of High affinity cGMP-specific 3',5'-cyclic phosphodiesterase 9A (O76083 whole entry): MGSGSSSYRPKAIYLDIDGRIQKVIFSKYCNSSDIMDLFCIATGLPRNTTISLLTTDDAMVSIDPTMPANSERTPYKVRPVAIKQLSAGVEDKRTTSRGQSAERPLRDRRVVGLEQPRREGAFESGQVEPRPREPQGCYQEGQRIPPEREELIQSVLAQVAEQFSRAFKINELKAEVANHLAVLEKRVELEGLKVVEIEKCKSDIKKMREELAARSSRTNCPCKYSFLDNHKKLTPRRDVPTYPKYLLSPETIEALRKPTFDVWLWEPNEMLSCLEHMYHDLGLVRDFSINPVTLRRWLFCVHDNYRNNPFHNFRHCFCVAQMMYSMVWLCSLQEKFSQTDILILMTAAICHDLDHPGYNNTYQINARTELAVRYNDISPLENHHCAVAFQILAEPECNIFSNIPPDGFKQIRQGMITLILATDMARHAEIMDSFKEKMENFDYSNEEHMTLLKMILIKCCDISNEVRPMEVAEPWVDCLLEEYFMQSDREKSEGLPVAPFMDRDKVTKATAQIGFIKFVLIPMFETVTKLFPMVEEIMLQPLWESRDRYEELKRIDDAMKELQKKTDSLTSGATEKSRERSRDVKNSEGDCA

[10] = molecular target: T4, Protein deacetylase HDAC6 (Homo sapiens, UniProt Q9UBN7); test: Inhibition of HDAC6 (unknown origin)
T4 sequence (Q9UBN7 whole entry): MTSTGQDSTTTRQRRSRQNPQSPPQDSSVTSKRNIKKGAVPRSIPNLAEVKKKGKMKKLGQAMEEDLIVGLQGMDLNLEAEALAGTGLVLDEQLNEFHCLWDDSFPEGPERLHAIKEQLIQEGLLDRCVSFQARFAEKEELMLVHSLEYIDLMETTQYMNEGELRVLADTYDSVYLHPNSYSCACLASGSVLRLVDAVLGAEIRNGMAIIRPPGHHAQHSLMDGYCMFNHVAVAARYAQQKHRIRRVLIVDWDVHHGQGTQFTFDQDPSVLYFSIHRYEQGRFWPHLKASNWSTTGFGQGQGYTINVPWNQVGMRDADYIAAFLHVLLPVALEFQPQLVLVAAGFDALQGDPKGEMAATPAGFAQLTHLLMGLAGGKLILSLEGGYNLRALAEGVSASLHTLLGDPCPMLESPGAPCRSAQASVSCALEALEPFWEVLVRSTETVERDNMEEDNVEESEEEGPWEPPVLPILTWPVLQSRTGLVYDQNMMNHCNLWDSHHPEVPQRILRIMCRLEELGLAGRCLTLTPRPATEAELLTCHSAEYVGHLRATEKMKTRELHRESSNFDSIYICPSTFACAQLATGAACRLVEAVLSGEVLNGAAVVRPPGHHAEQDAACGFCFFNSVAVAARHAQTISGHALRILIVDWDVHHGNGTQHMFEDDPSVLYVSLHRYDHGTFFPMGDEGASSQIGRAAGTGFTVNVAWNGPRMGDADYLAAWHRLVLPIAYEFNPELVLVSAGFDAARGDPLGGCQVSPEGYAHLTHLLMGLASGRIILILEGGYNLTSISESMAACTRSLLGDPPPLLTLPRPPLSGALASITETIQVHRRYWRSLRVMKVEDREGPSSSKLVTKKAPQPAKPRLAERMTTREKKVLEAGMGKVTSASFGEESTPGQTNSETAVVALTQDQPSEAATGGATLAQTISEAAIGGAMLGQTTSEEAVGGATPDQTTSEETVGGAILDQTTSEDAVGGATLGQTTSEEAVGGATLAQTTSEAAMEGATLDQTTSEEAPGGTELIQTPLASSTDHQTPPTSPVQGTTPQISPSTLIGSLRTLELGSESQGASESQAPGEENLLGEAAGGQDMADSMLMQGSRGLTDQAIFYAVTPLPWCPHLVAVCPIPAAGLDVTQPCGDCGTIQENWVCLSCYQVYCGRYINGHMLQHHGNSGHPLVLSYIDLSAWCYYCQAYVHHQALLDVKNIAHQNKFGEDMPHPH

## O=C(NO)c1ccc(CN2CCCc3cc(Cl)ccc32)cc1
[1]
  IC50: 29.5 µM

## CN(Cc1ccc(C(=O)NO)cc1[18F])CC12CC3CC(CC(C3)C1)C2
[2]
  IC50: > 10 µM
[3]
  IC50: > 10 µM
[4]
  IC50: > 10 µM
[5]
  IC50: > 10 µM

## C[C@@H]1CN(Cc2ccc(C(=O)NO)cc2)C[C@H]1c1nc2c(cnn2C2CCCC2)c(=O)[nH]1
[6]
  IC50: 593 nM
[7]
  IC50: 3.53 µM
[8]
  IC50: > 10 µM
[9]
  IC50: 107 nM
[10]
  IC50: 40 nM
